Assay results from patent US6818407B2, “Anti-endotoxic antimicrobial cationic peptides and methods of use therfor” (priority 1998, dated 2004).
Marks after values point to notes of the source that are not given here. Ends that are not written are not given here.

Tests used:
V. anguillarum [1] = test: Single intraperitoneal injection of peptide along with V. anguillarum into juvenile coho salmon; type: in vivo; settings: single injection of peptide along with bacteria; bacteria alone control 60%
Method: (§1) Fish loss from disease is a significant problem in aquaculture worldwide. However, expression of natural cationic peptide genes in fish could increase disease resistance because of continual cellular production of the antimicrobial peptides. In order to choose optimal peptides for transgenic fish, the antimicrobial activities of some cationic peptides were determined by testing minimum inhibitory concentrations (MICs) in vitro. […] The in vivo effect of CEME was examined by intraperitoneal injection of the peptide along with V. anguillarum into juvenile coho salmon. Fish in the bacteria alone control group had 60% mortality, while fish receiving peptide and bacteria injections had 82% mortality. […] Therefore, constant delivery of CEME and Pleurocidin-CN using intraperitoneal mini-osmotic pumps were carried out. Twelve days after pump implantation, the fish received intraperitoneal injections of V. anguillarum. The CEME and pleurocidin-CN pump group had longer survival time and lower mortalities than the control groups (50% Vs. 13%, and 75% Vs. 5%, respectively). Indolicidin transgenic cutthroat trout were made using a construct including an MT promoter, growth hormone signal, pre-region, indolicidin, and terminator. Transgenic individuals were identified by serum analysis using PCR with construct-specific oligonucleotide primers. […]

V. anguillarum [2] = test: Protection of coho salmon, peptide delivered constantly by intraperitoneal mini-osmotic pump; type: in vivo, juvenile coho salmon; settings: CEME by intraperitoneal mini-osmotic pump; control group 50%
Method: Constant delivery of peptide P-CN using intraperitoneal mini-osmotic pumps was carried out. Briefly, juvenile coho salmon were divided into three treatment groups: A. Bacterial injection alone (12 fish). B. Fish saline osmotic pump and bacterial injection (12 fish). C. A combination of P-CN osmotic pump and bacterial injection (19 fish). The fish were anaesthetized and implanted (peritoneal cavity) with mini-osmotic pumps having a pumping rate of 0.13 µl/hour. Heaters were placed in the tanks to keep the water temperature between 12 and 13° C. Pumps were filled with concentrated P-CN to deliver approximately […] peptide to fish over a 30-day period. Twelve days after pump implantation, the fish received intraperitoneal injections of V. anguillarum ([…]). Mortalities were first noticed on day 3 for the group injected with bacteria alone and on day 5 for the group which received saline osmotic pumps as well as bacterial injections. However, there was no significant difference in mortality between the bacterial injection alone group and the saline osmotic pump group (67% vs. 75%). Mortalities were delayed for the P-CN osmotic pump group. The P-CN osmotic pump group had only one fish die on day 6 over the 30 days experiments with an accumulated mortality of 5%. […] Furthermore, since cationic peptides are not effective in a single treatment and constant administration is necessary, this argues for the potential success of transgenic fish expressing peptide P-CN.
as §1, with “terminator.” for “terminator. Transgenic individuals were identified by serum analysis using PCR with construct-specific oligonucleotide primers.”

S. aureus = test: MIC, broth microdilution assay in polypropylene microtiter trays; type: cell-based; settings: average of three separate experiments
Summary of the method: (§2)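 Serially titrated peptides incubated with bacteria; growth tracked as OD; lowest level without OD change over the given period reported as MIC.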

E. coli [3] = test: as above; type: cell-based; settings: average of three separate experiments
Summary of the method: as §2

P. aeruginosa = test: as above; type: cell-based; settings: average of three separate experiments
Summary of the method: as §2

S. epidermis = test: as above; type: cell-based; settings: average of three separate experiments
Summary of the method: as §2

S. aureus K147 = test: as above; type: cell-based; settings: average of three separate experiments
Summary of the method: as §2

[4] = tested on: β-lactamase derepressed mutant (H547) of P. aeruginosa; test: microbe, parasite or virus in culture; type: cell-based; settings: P. aeruginosa H547
Summary of the method: (§3)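 Checkerboard titration in Mueller Hinton broth, peptide against carbenicillin or ciprofloxacin, inoculum 10 μl of 10^−4 dilution of overnight culture, 18-24 h at 37 °C. Combination MIC is the lowest concentration reducing growth >50%. FIC index = A/MIC A + B/MIC B, with ≤~0.5 synergy, 1.0 additivity, >1.0 antagonism.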

[5] = tested on: mutant (Nal B, H744) of P. aeruginosa; test: microbe, parasite or virus in culture; type: cell-based
Summary of the method: as §3

E. coli [6] = test: Synergy study (checkerboard titration) with hen white lysozyme; type: cell-based
P. aeruginosa (H103) = test: as above; type: cell-based
Salmonella typhi = test: as above; type: cell-based
[7] = tested on: Pseudomonas aeruginosa strain M2; test: Protection of neutropenic CD-1 mice challenged with Pseudomonas aeruginosa; type: in vivo; design: Survival post bacterial challenge, surviving mice: reference not given here; settings: for Survival (%) post bacterial challenge: PBS 8
Summary of the method: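 Neutropenia induced by three i.p. cyclophosphamide doses ([…], alternate days); mice then infected i.p. with 200-300 organisms/mouse. Peptides (200 µg/mouse = 8 mg/kg) in buffered citrate given i.p. at 30 min (single) or 30 min and 16 hrs (double) post-challenge; PBS control; mean of 2 experiments.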

[8] = tested on: Pseudomonas aeruginosa PAO; test: Chronic Pseudomonas aeruginosa lung infection in rats, aerosol treatment; type: in vivo; settings: lungs, quantitative culture; aerosol 10 ml of 5 mg/ml once daily for three days; untreated control 1.2 × 10^6
Method: Fifteen animals were utilized in these experiments (5 animals in each of three groups). All animals were inoculated intratracheal with 10^4 Pseudomonas aeruginosa PAO in agar beads. Three days following inoculation, rats were exposed to aerosol preparations from and Aero-Tech II nebulizer (CIS-US, Bedford, Mass.). The nebulizer was operated at 45 psi, with a flow rate of 10 L/min and contained 10 ml of the preparation to be aerosolized. The 10 ml volume was dispensed in 25-30 minutes. Animals were treated once daily for three days; control animals received daily exposure to 10 mls of 10 mM sodium citrate (pH 7.0); one treatment group received daily exposure to 10 mls of 10 mM sodium citrate (pH 7.0) containing 5 mg/ml of CM3; one treatment group received daily exposure to 10 mls of 10 mM sodium citrate (pH 7.0) containing 5 mg/ml of Cpα2. Animals were sacrificed on day 3, at one hour following the last exposure. The lungs of the treatment and control animals were removed for quantitative culture.

[9] = Lethal endotoxemia in galactosamine-sensitized mice; type: in vivo, CD-1 mice; settings: peptide 200 μg intraperitoneal within 10 min of 10 μg LPS; 24 hours post injection; 5 mice per group; no peptide 100
Method: To confirm this in vivo, endotoxic shock was induced by intraperitoneal injection of 10 μg of E.coli 0111:B4 LPS in phosphate-buffered saline (PBS; pH 7.2) into galactosamine-sensitized 8- to 10- week old female CD-1 mice (5 per group). In experiments involving peptides, 200 μg in 100 μl of sterile water was injected at separate intraperitoneal sites within 10 min of LPS injection. Survival was monitored at 24 hours post injection.

[10] = cationic peptide concentration, combined with lysozyme
[11] = lysozyme concentration, combined with the peptide

CC[C@H](C)[C@H](NC(=O)CNC(=O)[C@@H](NC(=O)[C@H](CCCCN)NC(=O)[C@H](CCCCN)NC(=O)[C@H](Cc1ccccc1)NC(=O)[C@H](CC(C)C)NC(=O)[C@H](CCCCN)NC(=O)[C@H](Cc1c[nH]c2ccccc12)NC(=O)[C@@H](N)CCCCN)[C@@H](C)CC)C(=O)NCC(=O)N[C@@H](C)C(=O)N[C@H](C(=O)N[C@@H](CC(C)C)C(=O)N[C@@H](CCCCN)C(=O)N[C@H](C(=O)N[C@@H](CC(C)C)C(=O)N[C@H](C(=O)N[C@H](C(=O)NCC(=O)N[C@@H](CC(C)C)C(=O)N1CCC[C@H]1C(=O)N[C@@H](C)C(=O)N[C@@H](CC(C)C)C(=O)N[C@H](C(=O)N[C@@H](CO)C(=O)O)[C@@H](C)CC)[C@@H](C)O)[C@@H](C)O)C(C)C)C(C)C [CEME, reference compound]
Mortality (V. anguillarum [1]): 82%
Mortality, pump group (V. anguillarum [2]): 13%

KWKKFIKSLTKSAAKTVVKTAKKPLIV [CM3]
MIC S. aureus (S. aureus): >64 µg/mL
MIC E. coli (E. coli [3]): 1 µg/mL
MIC P. aeruginosa (P. aeruginosa): 5 µg/mL
MIC S. epidermis (S. epidermis): 16 µg/mL
MIC S. aureus K147 (S. aureus K147): >64 µg/mL
(B) MIC of Carb when combined with peptide ([4]; Carbenicillin with peptide at concentration (A)): 32 µg/mL
FIC index ([4]; peptide + Carbenicillin, about 0.5 or less synergy, 1.0 additivity, >1.0 antagonism): 0.75
MIC A MIC of Peptides ([4]; peptide alone): 2 µg/mL
(A) Peptide doses together with Carb ([4]; peptide concentration in combination with Carbenicillin): .5 µg/mL
MIC A MIC of Peptides ([5]; peptide alone, P. aeruginosa mutant Nal B, H744 (Table 5)): 2 µg/mL
(A) Peptide doses together with Cipro ([5]; peptide concentration in combination with ciprofloxacin, Nal B, H744): .5 µg/mL
FIC for combination of cationic peptide and lysozyme (E. coli [6]): 0.31
Lowest [CP] showing synergy (E. coli [6]; [10]): 0.041 µg/mL
Lowest [Lyso] showing synergy (E. coli [6]; [11]): 15.6 µg/mL
FIC for combination of cationic peptide and lysozyme (P. aeruginosa (H103)): 0.50
Lowest [CP] showing synergy (P. aeruginosa (H103); [10]): 1.3 µg/mL
Lowest [Lyso] showing synergy (P. aeruginosa (H103); [11]): 15.6 µg/mL
FIC for combination of cationic peptide and lysozyme (Salmonella typhi): 0.75
Lowest [CP] showing synergy (Salmonella typhi; [10]): 2.61 µg/mL
Lowest [Lyso] showing synergy (Salmonella typhi; [11]): 250 µg/mL
Survival post bacterial challenge, surviving mice ([7]; double dose (200 μg per mouse i.p. at 30 min and 16 hrs), 16 hr): 13
Survival post bacterial challenge, surviving mice ([7]; double dose, 24 hr): 13
Survival post bacterial challenge, surviving mice ([7]; double dose, 41 hr): 11
Survival post bacterial challenge, surviving mice ([7]; double dose, 48 hr): 11
Survival post bacterial challenge, surviving mice ([7]; double dose, 64 hr): 10
Survival (%) post bacterial challenge ([7]; double dose, 64 hr): 76%
Survival post bacterial challenge, surviving mice ([7]; double dose, 72 hr): 10
Survival (%) post bacterial challenge ([7]; double dose, 72 hr): 76%
Survival post bacterial challenge, surviving mice ([7]; double dose, 96 hr): 8
Survival (%) post bacterial challenge ([7]; double dose, 96 hr): 61%
Survival post bacterial challenge, surviving mice ([7]; single dose (200 μg per mouse i.p. at 30 min), 16 hr): 15
Survival post bacterial challenge, surviving mice ([7]; single dose, 24 hr): 15
Survival post bacterial challenge, surviving mice ([7]; single dose, 41 hr): 14
Survival post bacterial challenge, surviving mice ([7]; single dose, 48 hr): 13
Survival post bacterial challenge, surviving mice ([7]; single dose, 64 hr): 12
Survival (%) post bacterial challenge ([7]; single dose, 64 hr): 80%
Survival post bacterial challenge, surviving mice ([7]; single dose, 72 hr): 11
Survival (%) post bacterial challenge ([7]; single dose, 72 hr): 73%
Survival post bacterial challenge, surviving mice ([7]; single dose, 96 hr): 11
Survival (%) post bacterial challenge ([7]; single dose, 96 hr): 73%
Mean Colony Forming Units +/− S.D. [8]: 7.4 × 10^4 +/− 6.7 × 10^4* CFU
Mortality (%) [9]: 80%
